Test results published in US20050048539A1, “Methods to monitor molecule conformation and molecule/molecule proximity” (The General Hospital Corporation, priority 2003, published 2005).
“Also recorded” adds a separate entry of the source.

Key:
[1] = system: Aβ40, Aβ42 and Aβ1-x; test: Aβ ELISA of conditioned medium of PS70 cells treated with NSAIDs; format: cell-based, human; settings: 24 hours; for Aβ1-x level (ELISA): high doses
Protocol: (§1) Cell culture and drug treatment: PS70 cells, CHO cells stably overexpressing wild-type human PS1 and APP 751 (Xia, W. et al., J. Biol. Chem. 272, 7977-7982, 1997), mouse N2a neuroblastoma, or human embryonic kidney (HEK) cells were used in this study. Cells were cultured in OPTI-MEMI with 5% fetal bovine serum at 37° C. with 5% CO2 in a tissue culture incubator. Primary cultured hippocampal-cortical neurons were prepared from embryonic day 16-18 mouse brain as described (Berezovska, O. et al., Brain Res Mol Brain Res 69: 273-280, 1999).
(§2) The NSAIDs (S)-ibuprofen (250 mM, Biomol, Plymouth Meeting, Penn.), (R)-ibuprofen (250 mM, Biomol), and flurbiprofen (250 mM, Calbiochem, San Diego, Calif.) were dissolved in 100% ethanol. […] Cells were plated onto either 12-well plates (for Aβ determinations) or onto 4-chamber slides (FLIM studies) and treated for 24 hours with NSAIDs prior to the analysis. A vehicle control chamber treated with ethanol or DMSO (0.1%) was included in each experiment. Cell toxicity was analyzed for all drugs tested by measuring adenylate kinase levels using Toxi-light reagent (Camdex, New Jersey).
(§3) ELISA, BACE-specific enzymatic activity assay and Western Blots: For Aβ ELISA we used 500 μl of conditioned medium collected 24 hours post-treatment. Formic acid-extractable Aβ in the mouse brain was measured as described (Fukumoto, H.,et al., Am. J. Pathol. 164, 719-725, 2004). The capture antibody was BNT77 and the detection antibody was horseradish peroxidase (HRP)-conjugated BA27 for Aβ40 and HRP-conjugated BC05 for Aβ42 (Asami-Odaka, A. et al., Biochemistry 34: 10272-10278, 1995). We used BAN50 as a capture antibody and HRP-conjugated BNT77 as a detection antibody for Aβ1-x (a gift from Takeda, Japan) (Asami-Odaka, A. et al., Biochemistry 34: 10272-10278, 1995). BACE activity was measured using a sensitive BACE-specific enzymatic activity assay (Fukumoto, H.,et al., Am. J. Pathol. 164, 719-725, 2004).
We treated Chinese hamster ovary (CHO) cells stably transfected with APP and PS1 (PS70 cells) with several NSAIDs at different doses for 24 hours and measured Aβ40 and Aβ42 using ELISA (FIG. 14).

[2] = biological target: T1, APP and PS1 (Homo sapiens, UniProt P49768); test: FLIM assay for PS1-APP proximity after NSAID treatment; format: cell-based; settings: donor APP-CT-FITC, acceptor loop PS1-Cy3, 24 h, 375 μM S-ibuprofen, 375 μM flurbiprofen, 500 μM aspirin, DMSO vehicle 2127 ± 224
T1 construct: expressed in transfected cells
Protocol: as §1, §2

[3] = biological target: T2, BACE (Mus musculus, UniProt P56818); test: BACE-specific enzymatic activity assay in brain of treated mice; format: in vivo; settings: S-ibuprofen 375 ppm in diet vs control diet, 15 days
T2 construct: from tissue; host or cells: frozen brain of wtPS1 transgenic mice
T2 sequence (P56818 46-501): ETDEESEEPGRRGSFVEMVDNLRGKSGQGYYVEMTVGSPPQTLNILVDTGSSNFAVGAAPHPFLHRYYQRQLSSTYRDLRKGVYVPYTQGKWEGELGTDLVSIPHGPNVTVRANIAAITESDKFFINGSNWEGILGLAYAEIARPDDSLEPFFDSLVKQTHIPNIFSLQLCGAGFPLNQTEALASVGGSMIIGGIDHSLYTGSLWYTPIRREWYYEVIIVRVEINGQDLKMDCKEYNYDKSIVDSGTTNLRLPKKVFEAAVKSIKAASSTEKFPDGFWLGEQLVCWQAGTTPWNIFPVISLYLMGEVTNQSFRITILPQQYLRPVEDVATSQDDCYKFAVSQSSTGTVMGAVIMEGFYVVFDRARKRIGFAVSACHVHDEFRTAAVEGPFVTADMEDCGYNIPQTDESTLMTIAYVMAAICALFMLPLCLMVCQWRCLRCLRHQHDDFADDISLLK
Protocol: as §3
(§4) Ibuprofen treatment of wtPS1 mice: Three-month-old transgenic mice over-expressing wtPS1 were treated with S-ibuprofen (375 ppm in diet, Research Diets, New Brunswick, N.J.) or a control diet for 15 days (6 mice per group). […] At the end of the experimental period animals were sacrificed by CO2 inhalation. The brains were dissected, half of each brain was frozen on dry ice for Aβ ELISA and BACE activity analysis and the other half was fixed in 4% paraformaldehyde for immunohistochemistry. […]

[4] = biological target: T3, PS1 (Homo sapiens, UniProt P49768); test: In vivo FLIM assay of proximity between N- and C-termini of PS1 in brain sections; design: expressed in transfected cells; host or cells: primary hippocampal-cortical neurons from embryonic day 16-18 mouse brain; species or system mouse; settings: mice, 375 ppm in diet, 15 days; control diet 1934±161 psec; P=0.02
Protocol: (§5) Ibuprofen treatment of wtPS1 mice: Three-month-old transgenic mice over-expressing wtPS1 were treated with S-ibuprofen (375 ppm in diet, Research Diets, New Brunswick, N.J.) or a control diet for 15 days (6 mice per group). […] At the end of the experimental period animals were sacrificed by CO2 inhalation. The brains were dissected, half of each brain was frozen on dry ice for Aβ ELISA and BACE activity analysis and the other half was fixed in 4% paraformaldehyde for immunohistochemistry.
Half of the brain was fixed, sectioned at 35 μm, and immunostained with antibodies against the N- and C-termini of PS1.

[5] = Chow consumption and mouse weight during ibuprofen treatment; format: in vivo; settings: S-ibuprofen 375 ppm in diet vs control diet, 15 days
Protocol: as §5

[6] = system: Aβ42 and Aβ40; test: Brain Aβ ELISA in wtPS1 transgenic mice treated with S-ibuprofen; format: in vivo, mouse; settings: 3-month-old wtPS1 transgenic mice, 375 ppm in diet, 15 days; P=0.03
Protocol: as §3, §4

[7] = biological target: T3, PS1; test: FLIM assay of PS1 N-/C-termini proximity in primary cultured neurons; format: cell-based, mouse; design: expressed in transfected cells; host or cells: primary hippocampal-cortical neurons from embryonic day 16-18 mouse brain
Protocol: as §1, with “1999). Transfection protocol: Transient transfection in cells was performed using Superfect reagents (Qiagen, Valencia, Calif.) according to manufacturer's instructions. Primary cultured neurons were transfected with wild-type PS1 plasmid using the method of calcium phosphate co-precipitation as described (Berezovska, O. et al., Brain Res Mol Brain Res 69: 273-280, 1999; Chen, C. et al., Biotechniques 6: 632-638, 1987).” for “1999).”

[8] = system: APP and PS1 (PS1/γ-secretase complex); test: FLIM assay for PS1 loop-APP C-terminus proximity in CHO cells treated with γ-secretase inhibitors; format: cell-based, Chinese hamster; settings: WT PS1 CHO cells, donor PS1 loop-FITC, acceptor APP770-CY3, 4 h with DAPT 500 nM or WPE-III-31C 1 μM, non-FRET control 2600 ± 110, untreated 2290 ± 216
Protocol: Chinese hamster ovary (CHO) cells stably transfected with APP770 and either wild type PS1 (wt PS1) or Aspartate mutant PS1 (D257A PS1) were grown in OPTI-MEM with 5% fetal bovine serum and appropriate antibiotics (Puromycin or Zeocin, respectively, (Berezovska et al., 2000)).
Cells were fixed and immunostained 24 hrs posttransfection as described previously (Jack, C. et al., Brain Res Mol Brain Res 87: 166-174, 2001). We used a polyclonal C8 antibody (Selkoe, D. et al., Proc Natl Acad Sci USA 85: 7341-7345, 1988) to detect the C-terminus of APP. A monoclonal antibody to the loop region of PS1 (Chemicon, Temecula, Calif.) was used to identify the γ-secretase complex. PS1 N-terminal X81 antibody was a gift from D. Selkoe (Brigham and Women's Hospital, Boston, Mass.); PS1 C-terminal antibody was purchased from R&D Systems, Inc., Minneapolis, Minn.). For FRET/FLIM studies we chose Cy3-labeled goat anti-rabbit as the acceptor fluorophore, and FITC-labeled goat anti-mouse as the donor fluorophore.
Fluorescence Lifetime Imaging Microscopy (FLIM) relies on the observation that fluorescence lifetimes (the time of fluorophore emission after brief excitation, measured in picoseconds) are shorter in the presence of a FRET acceptor. […] We used a high-speed Hamamatsu detector and hardware/software from Becker and Hickl (Berlin, Germany) to measure fluorescence lifetimes on a pixel-by-pixel basis. […]
The following controls were used to establish and validate the FLIM assay: (1) As a negative control, FITC lifetime was measured in the absence of the acceptor. […] (2) As a positive control, FITC lifetime was measured in the presence of an acceptor. […] By contrast, the FITC fluorescence lifetime (FLIM image) within the area where the acceptor was photobleached reverts to a longer lifetime (color-coded as blue), identical to the lifetime of FITC in the absence of an acceptor (as in the negative control, FIG. 7A). […]
If there was no interaction, lifetimes on the order of ˜2600 psec were observed. If FRET was detected, a population with a statistically shorter lifetime (<˜2400 psec) was observed.

[9] = biological target: T3, PS1; test: Confocal staining with biotinylated WPE31C as histological reagent (wt PS1 vs D257A PS1 cells); format: cell-based; design: expressed in transfected cells; settings: cells expressing wt PS1
Protocol: PS1 immunostaining co-localizes with CY3-streptavidin labeled WPE-31C-bi in the cells expressing wt PS1. […] Bar=[…].
We reasoned that an agent that binds to the active site would compete with APP, blocking the APP-PS1 interaction if the first possibility were the case. […] The cells were treated with WPE-31C to examine whether APP would still be associated with the PS1 loop region. […] It has been observed that transition state analogues like WPE31C bind specifically to the heterodimeric form of PS1, and not to the holoprotein prior to cleavage. […] We used a biotinylated form of WPE31C (Esler, W. P. et al., Proc Natl Acad Sci USA 99: 2720-2725, 2002) as a histological reagent. […] Of note, there was less WPE-31C/Cy3 signal in the proximal perinuclear compartment, compared with PS1 immunoreactivity, confirming our observation that some of this PS1 is in a different conformation and is likely not proteolytically active.

Compound | Aβ42 level (ELISA) [1] | Aβ40 level (ELISA) [1] | Aβ1-x level (ELISA) [1] | FITC lifetime (PS1 N- to C-termini distance) [7] | further results
CC(C)Cc1ccc([C@@H](C)C(=O)O)cc1 [R-ibuprofen, (R)-ibuprofen] | marked reduction; also recorded: dose-dependent reduction |  |  |  | 
CC(C)Cc1ccc([C@H](C)C(=O)O)cc1 [S-ibuprofen, (S)-ibuprofen] | marked reduction; also recorded: dose-dependent reduction | reduced | did not observe a change | significantly increased | FITC lifetime APP-CT (mean ± SD) [2]: 2307 ± 107 psec; FITC lifetime APP-CT (mean ± SD) ([2]; listed as ibuprofen): increased FITC lifetime; BACE activity in brain [3]: No differences; FITC lifetime, brain sections stained for PS1 N- and C-termini [4]: 2205±104 psec; amount of chow consumed, mouse weight [5]: no differences; reduction of Aβ42/Aβ40 ratio in the brain vs control diet [6]: 12%
COC(=O)[C@@H](NC(=O)[C@H](CC(C)C)NC(=O)N(Cc1ccccc1)C[C@@H](O)[C@H](Cc1ccccc1)NC(=O)OC(C)(C)C)C(C)C [WPE-III-31C] |  |  |  |  | FITC Lifetime (psec) mean ± SD ([8]; listed as WPE31C): 1972 ± 264 (n = 30) psec; FITC Lifetime (psec) mean ± SD ([8]; listed as WPE-31C): tight association between APP and PS1; CY3-streptavidin staining / co-localization with PS1 immunostaining [9]: strongly stained
CC(=O)Oc1ccccc1C(=O)O [aspirin] | No or small change | No or small change |  |  | 
CC(C(=O)O)c1ccc(-c2ccccc2)c(F)c1 (centres unmarked) [flurbiprofen] | marked reduction; also recorded: dose-dependent reduction | reduced | did not observe a change |  | 
COc1ccc2c(c1)c(CC(=O)O)c(C)n2C(=O)c1ccc(Cl)cc1 [indomethacin] | marked reduction; also recorded: dose-dependent reduction |  | did not observe a change | significantly increased | 
COc1ccc2cc([C@H](C)C(=O)O)ccc2c1 [naproxen] | No or small change | No or small change | did not observe a change | not | 
